Measured values reported in patent US11180462B2, “Microbiocidal oxadiazole derivatives” (SYNGENTA PARTICIPATIONS AG, priority 2015, dated 2021).

What was measured:
[1] = system: Puccinia recondita f. Sp. Tritici; assay: Fungicidal activity against Puccinia recondita f. sp. tritici / wheat / leaf disc preventative (brown rust); format: in vivo; details: foliar, 200 ppm in the applied formulation, wheat leaf segments, preventative, compared to untreated control leaf disks, read-out: disease control
In short: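 Compound application precedes infection: segments of wheat cv. Kanzler, sprayed at 200 ppm, are inoculated with a spore suspension after 1 day. Incubation is at 19° C. with 75% relative humidity and 12 h light/12 h darkness, and control versus untreated leaves is rated 7 to 9 days post-application.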

[2] = system: Puccinia recondita f. Sp. Tritici; assay: Fungicidal activity against Puccinia recondita f. sp. tritici / wheat / leaf disc curative (brown rust); format: in vivo; details: foliar, 24 h, 200 ppm in the applied formulation, wheat leaf segments, curative (applied 1 day after inoculation), compared to untreated control leaf disks, read-out: disease control
In short: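 Wheat cv. Kanzler leaf segments on agar, inoculated with rust spore suspension, kept dark at 19° C and 75% RH; formulated compound sprayed 1 day post-inoculation. Incubated 19° C, 75% RH, 12 h light/12 h dark; percent disease control vs untreated scored 6 to 8 days after application.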

[3] = system: Glomerella lagenarium (Colletotrichum lagenarium); assay: Fungicidal activity against Glomerella lagenarium (Colletotrichum lagenarium) liquid culture / cucumber / preventative (anthracnose); format: cell-based; details: Colletotrichum orbiculare; 20 ppm in the applied formulation; liquid culture (PDB), growth inhibition measured photometrically after 3 to 4 days; compared to untreated control; read-out: disease control
In short: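 Photometric read-out of fungal growth after 2–7 days, expressed as percent antifungal activity versus untreated check. Cryo-stored conidia in PDB; compound at 20 ppm; dark, 24 °C, 96% RH.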

[4] = system: Phakopsora Pachyrhizi; assay: Fungicidal activity against Phakopsora pachyrhizi / soybean / leaf disc preventative (Asian soybean rust); format: in vivo; details: foliar, 200 ppm in the applied formulation, soybean leaf disks, compared to untreated control leaf disks, read-out: disease control
In short: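 Preventative soybean leaf-disc test: discs on water agar sprayed with diluted formulated compound, inoculated one day later with spores on the lower surface. Held 24–36 h dark at 20°C, 75% rh, then 12 h light/day; percent disease control versus untreated discs scored 12–14 days after application.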

O=C(ON(Cc1ccc(-c2noc(C(F)(F)F)n2)cc1)C(=O)C1CCC1)C1CCC1 [Compound 1.762, [cyclobutane-carbonyl-[[4-[5-(trifluoromethyl)-1,2,4-oxadiazol-3-yl]phenyl]methyl]-amino] cyclobutane-carboxylate]
≥ 80%: pest or weed control at 200 ppm [1] | pest or weed control at 200 ppm [2] | inhibition of growth at 20 ppm [3] | pest or weed control at 200 ppm [4]

O=C(CC1CC1(F)F)N(Cc1ccc(-c2noc(C(F)(F)F)n2)cc1)C1CC1 (centres unmarked) [Compound 1.138, N-cyclopropyl-2-(2,2-difluorocyclopropyl)-N-[[4-[5-(trifluoromethyl)-1,2,4-oxadiazol-3-yl]phenyl]methyl]-acetamide]
≥ 80%: pest or weed control at 200 ppm [1] | pest or weed control at 200 ppm [2] | inhibition of growth at 20 ppm [3] | pest or weed control at 200 ppm [4]

CC1(C(=O)N(Cc2ccc(-c3noc(C(F)(F)F)n3)cc2)CC2CC2)COC1 [Compound 1.235, N-(cyclopropylmethyl)-3-methyl-N-[[4-[5-(trifluoromethyl)-1,2,4-oxadiazol-3-yl]phenyl]methyl]-oxetane-3-carboxamide]
≥ 80%: pest or weed control at 200 ppm [1] | pest or weed control at 200 ppm [2] | inhibition of growth at 20 ppm [3] | pest or weed control at 200 ppm [4]

CON(Cc1ccc(-c2noc(C(F)(F)F)n2)cc1)C(=O)C1(C)COC1 [Compound 1.50, N-methoxy-3-methyl-N-[[4-[5-(trifluoromethyl)-1,2,4-oxadiazol-3-yl]phenyl]methyl]-oxetane-3-carboxamide]
≥ 80%: pest or weed control at 200 ppm [1] | pest or weed control at 200 ppm [2] | inhibition of growth at 20 ppm [3] | pest or weed control at 200 ppm [4]

CCN(Cc1ccc(-c2noc(C(F)(F)F)n2)cc1)C(=O)C1(C)COC1 [Compound 1.508, N-ethyl-3-methyl-N-[[4-[5-(trifluoromethyl)-1,2,4-oxadiazol-3-yl]phenyl]methyl]-oxetane-3-carboxamide]
≥ 80%: pest or weed control at 200 ppm [1] | pest or weed control at 200 ppm [2] | inhibition of growth at 20 ppm [3] | pest or weed control at 200 ppm [4]

CCN(Cc1ccc(-c2noc(C(F)(F)F)n2)cc1)C(=O)C1CC1 [Compound 1.514, N-ethyl-N-[[4-[5-(trifluoromethyl)-1,2,4-oxadiazol-3-yl]phenyl]methyl]-cyclopropane-carboxamide]
≥ 80%: pest or weed control at 200 ppm [1] | pest or weed control at 200 ppm [2] | inhibition of growth at 20 ppm [3] | pest or weed control at 200 ppm [4]

C=CCN(C(=O)CC)C(C#N)c1ccc(-c2noc(C(F)(F)F)n2)cc1 (centres unmarked) [Compound 1.592, N-allyl-N-[cyano-[4-[5-(trifluoromethyl)-1,2,4-oxadiazol-3-yl]phenyl]methyl]-propanamide]
≥ 80%: pest or weed control at 200 ppm [1] | pest or weed control at 200 ppm [2] | inhibition of growth at 20 ppm [3] | pest or weed control at 200 ppm [4]

CCC(=O)N(Cc1ccc(-c2noc(C(F)(F)F)n2)cc1)C(C)CC (centres unmarked) [Compound 1.389, N-sec-butyl-N-[[4-[5-(trifiuoromethyl)-1,2,4-oxadiazol-3-yl]phenyl]methyl]-propanamide]
≥ 80%: pest or weed control at 200 ppm [1] | pest or weed control at 200 ppm [2] | inhibition of growth at 20 ppm [3] | pest or weed control at 200 ppm [4]

C#CCN(Cc1ccc(-c2noc(C(F)(F)F)n2)cc1)C(=O)CC=CC [Compound 1.180, N-prop-2-ynyl-N-[[4-[5-(trifluoromethyl)-1,2.4-oxadiazol-3-yl]phenyl]methyl]-pent-3-enamide]
≥ 80%: pest or weed control at 200 ppm [1] | pest or weed control at 200 ppm [2] | inhibition of growth at 20 ppm [3] | pest or weed control at 200 ppm [4]

CON(Cc1ccc(-c2noc(C(F)(F)F)n2)cc1)C(=O)Cc1cccnc1 [Compound 1.28, N-methoxy-2-(3-pyridyl)-N-[[4-[5-(trifluoromethyl)-1,2,4-oxadiazol-3-yl]phenyl]methyl]-acetamide]
≥ 80%: pest or weed control at 200 ppm [1] | pest or weed control at 200 ppm [2] | inhibition of growth at 20 ppm [3] | pest or weed control at 200 ppm [4]

CCC(=O)ON(Cc1ccc(-c2noc(C(F)(F)F)n2)cc1)C(=O)CC [Compound 1.760, [propanoyl-[[4-[5-(trifluoromethyl)-1,2,4-oxadiazol-3-yl)phenyl]methyl]-amino] propanoate]
≥ 80%: pest or weed control at 200 ppm [1] | pest or weed control at 200 ppm [2] | inhibition of growth at 20 ppm [3] | pest or weed control at 200 ppm [4]

CCCC(=O)N(CC)Cc1ccc(-c2noc(C(F)(F)F)n2)cc1 [Compound 1.505, N-ethyl-N-[[4-[5-(trifluoromethyl)-1,2,4-oxadiazol-3-yl]phenyl]methyl]-butanamide]
≥ 80%: pest or weed control at 200 ppm [1] | pest or weed control at 200 ppm [2] | inhibition of growth at 20 ppm [3] | pest or weed control at 200 ppm [4]

C#CCN(Cc1ccc(-c2noc(C(F)(F)F)n2)cc1)C(=O)C(C)C [Compound 1.155, 2-methyl-N-prop-2-ynyl-N-[[4-[5-(trifluoromethyl)-1,2,4-oxadiazol-3-yl]phenyl]methyl]-propanamide]
≥ 80%: pest or weed control at 200 ppm [1] | pest or weed control at 200 ppm [2] | inhibition of growth at 20 ppm [3] | pest or weed control at 200 ppm [4]

CCC(C)C(=O)N(O)Cc1ccc(-c2noc(C(F)(F)F)n2)cc1 (centres unmarked) [Compound 1.765, N-hydroxy-2-methyl-N-[[4-[5-(trifluoromethyl)-1,2,4-oxadiazol-3-yl]phenyl]methyl]-butanamide]
≥ 80%: pest or weed control at 200 ppm [1] | pest or weed control at 200 ppm [2] | inhibition of growth at 20 ppm [3] | pest or weed control at 200 ppm [4]

CCC(=O)N(Cc1ccc(-c2noc(C(F)(F)F)n2)cc1)CC(F)(F)F [Compound 1.582, N-(2,2,2-trifluoroethyl)-N-[[4-[5-(trifluoromethyl)-1,2,4-oxadiazol-3-yl]phenyl]methyl]-propanamide]
≥ 80%: pest or weed control at 200 ppm [1] | pest or weed control at 200 ppm [2] | inhibition of growth at 20 ppm [3] | pest or weed control at 200 ppm [4]

CCN(Cc1ccc(-c2noc(C(F)(F)F)n2)cc1)C(=O)C(C)C [Compound 1.503]
≥ 80%: pest or weed control at 200 ppm [1] | pest or weed control at 200 ppm [2] | inhibition of growth at 20 ppm [3] | pest or weed control at 200 ppm [4]

CCC(C)N(Cc1ccc(-c2noc(C(F)(F)F)n2)cc1)C(=O)C(C)OC (centres unmarked) [Compound 1.402, 2-methoxy-N-sec-butyl-N-[[4-(5-(trifluoromethyl)-1,2,4-oxadiazol-3-yl]phenyl]methyl]-propanamide]
≥ 80%: pest or weed control at 200 ppm [1] | pest or weed control at 200 ppm [2] | inhibition of growth at 20 ppm [3] | pest or weed control at 200 ppm [4]

COCCN(Cc1ccc(-c2noc(C(F)(F)F)n2)cc1)C(=O)CC(F)(F)F [Compound 1.361, 3,3,3-trifluoro-N-(2-methoxyethyl)-N-[[4-[5-(trifluoromethyl)-1,2,4-oxadiazol-3-yl]phenyl]methyl]-propanamide]
≥ 80%: pest or weed control at 200 ppm [1] | pest or weed control at 200 ppm [2] | inhibition of growth at 20 ppm [3] | pest or weed control at 200 ppm [4]

CON(C)C(=O)N(Cc1ccc(-c2noc(C(F)(F)F)n2)cc1)C1CC1 [Compound 3.33, 1-cyclopropyl-3-methoxy-3-methyl-1-[[4-[5-(trifluoromethyl)-1,2,4-oxadiazol-3-yl]phenyl]methyl]urea]
≥ 80%: pest or weed control at 200 ppm [1] | pest or weed control at 200 ppm [2] | inhibition of growth at 20 ppm [3] | pest or weed control at 200 ppm [4]

CCN(Cc1ccc(-c2noc(C(F)(F)F)n2)cc1)C(=O)C1CC1C (centres unmarked) [Compound 1.500, N-ethyl-2-methyl-N-[[4-[5-(trifluoromethyl)-1,2,4-oxadiazol-3-yl]phenyl]methyl]-cyclopropane-carboxamide]
≥ 80%: pest or weed control at 200 ppm [1] | pest or weed control at 200 ppm [2] | inhibition of growth at 20 ppm [3] | pest or weed control at 200 ppm [4]
